One block for each compound: values may come before it. Peptide text beside a SMILES is read from it. * marks the point of attachment. Palmitoyl = CCCCCCCCCCCCCCCC(=O)*; Decanoyl = CCCCCCCCCC(=O)*
Experiments:
[1] = pH-dependent release of encapsulated 3 kDa FITC-dextran to screen PA sequences; type: physicochemical; conditions: 3 kDa FITC-dextran release; pH 7 minus pH 5 at 5 hr
Source text: GOx conversion of physiological levels of glucose to yield gluconic acid can lead to a microenvironmental pH in the range of ˜4-5.6. Accordingly, a molecular design was envisioned bearing the typical saturated alkyl chain and β-sheet-forming sequence coupled to glutamic acid as the hydrophilic domain; the pKa of its carboxylate R-group (˜4.5) can shift upward in the range of 4.5-6 due to aggregation effects from PA self-assembly. […] Different PA sequences were synthesized to vary the alkyl tail length (C10 and C16) and valine (V)-alanine (A) β-sheet sequence (V2A2, VA3, A2) with a conserved hydrophilic head group (E2). The intention of screening this small set of molecules was to probe pH-responsive release to determine the optimal balance of attractive and repulsive forces required for the envisioned application of assembly at normal glucose (i.e., low pH actuated by GOx) but disassembly and glucagon release in low glucose conditions (i.e., neutral-buffered physiological pH). […] The selected sequence has a shorter C10 alkyl segment than commonly used in most reported PA materials. The V2A2 sequence is thought to be effective for β-sheet hydrogen bonding, while still being shorter than most commonly explored sequences. […] Thus, a reduction in cohesive forces from a shorter alkyl segment and a 4-residue β-sheet forming segment was thought to enable more rapid responsiveness dependent on the charge state of the glutamic acid residues.
Hydrogels were prepared in all cases in a pH 5 buffer at 1% w/v to ensure initial gelation. […] It is noted that catalase was added to these formulations in order to catalyze the conversion of the toxic GOx byproduct, H2O2, into H2O and O2 in advance of in vivo application, as is commonly done to reduce toxicity for other GOx-based glucose-responsive materials.

[2] = Oscillatory rheology of 1% w/v PA samples in buffers of various pH; type: physicochemical; conditions: for storage modulus G′: 1% w/v, 1% strain, 10 rad/s
Procedure: The C10-V2A2E2 peptide (SEQ ID NO: 4) amphiphile was first dissolved in DI water at a concentration of 2% (w/v). The solution was adjusted to pH 7.4 using 0.1 M HCl, and then mixed with an equal volume of citrate-phosphate buffer (150 mM buffer+150 mM NaCl) at different pH (4, 5, 6, 7, 8) to form a gel at a concentration of 1% (w/v) in a final buffer concentration of 150 mM.
(§1) Dynamic oscillatory rheology was performed on a TA Instruments Discovery HR-2 rheometer fitted with a Peltier stage using a parallel plate geometry with diameter of 25 mm to test the mechanical properties of all peptide hydrogels. Samples were prepared at a concentration of 1% (w/v) in buffers of different pH or glucose concentration, as described above, and measured 24 h after gel preparation. An amplitude sweep was first performed to determine the linear viscoelastic range for each hydrogel condition, and then a frequency sweep was performed at constant strain. Subsequently, a time-sweep (1% strain, 10 rad/s angular frequency) was performed for all hydrogels to measure and compare the storage modulus (G′).
Vial inversion affords a crude means to inspect bulk differences in apparent hydrogelation. By contrast, rheological testing enables quantitative insights into the mechanical and dynamic properties of these materials. Oscillatory rheology was thus performed to quantify the observed pH-dependent differences in hydrogelation. Samples were first assessed with a strain sweep to determine the linear viscoelastic range, and then gel-forming samples were subjected to a frequency sweep to verify the range of oscillatory frequency rates wherein the storage modulus (G′) exceeded the viscous/loss modulus (G″).
The G′ values for samples at each pH were compared at a constant strain of 1% and frequency of 10 rad/s. When comparing G′ values across the full range of pH explored (n=2 gels/sample), pH-dependent mechanical properties were clearly evident (FIG. 4E, FIG. 7). […] Samples prepared at pH 8 had G′ measurements at the lower limit of instrument sensitivity.

[3] = pH recorded by microelectrode submerged in PA/GOx hydrogel samples; type: physicochemical; conditions: 24 h, began at pH 7.4
[4] = Oscillatory rheology of 1% w/v PA with GOx at various glucose concentrations; type: physicochemical; conditions: pH 7.4 start, 24 h
Procedure: The C10-V2A2E2 peptide amphiphile was first dissolved in DI water at a concentration of 2% (w/v). The solution was adjusted to pH 7.4 using 0.1 M HCl, and then mixed with an equal volume of 300 mM NaCl solution containing 440 U/mL GOx and different glucose concentration (0, 100, 200, 300, 400 mg/dL) to achieve final glucose concentrations of 0, 50, 100, 150, and 200 mg/dL and final peptide concentration of 1% (w/v).
as §1
After pH-dependent self-assembly and gelation was established, glucose-dependent gelation was explored through the inclusion of GOx to actuate glucose into a pH stimulus. One benefit of hydrogelation of this material at 1% w/v is the significant hydrated and interconnected porosity (FIG. 9A-D) to enable encapsulation of proteins like GOx to drive gelation in response to glucose. Samples of C10-V2A2E2 were prepared at 1% w/v in buffer at pH 7.4, with glucose added to achieve concentrations ranging from 0 to 200 mg/dL (0 to 11.1 mM). These ranges of glucose were selected to span typical physiological glucose levels in the healthy state and extend down to levels corresponding to hypoglycemia. Following equilibration for 24 h, samples were assessed grossly for gelation by vial inversion (FIG. 10A), as performed in pH-dependent gelation studies. […] The material prepared with 100 mg/dL glucose was very viscous but slowly flowed upon inversion, while those prepared at 0 mg/dL and 50 mg/dL were not self-supported on inversion.
Measurements were collected as before for gels prepared in each of the different glucose-containing buffers. The value of G′ increased with increasing levels of glucose, as follows: 10.2 Pa (0 mg/dL), 19.0 Pa (50 mg/dL), 29.5 Pa (100 mg/dL), 206.6 Pa (150 mg/dL), and 2.4 kPa (200 mg/dL). Given results of pH-dependent gelation for C10-V2A2E2 PA, it was expected that inclusion of GOx would actuate increased glucose level into a local reduction in pH driving hydrogelation. […] The fixed and finite glucose concentrations within these small volume hydrogels may somewhat limit direct comparisons with concentrations for their use in a physiological setting, as a replenishable glucose supply could further stiffen the materials through enhanced pH reduction.

[5] = humans; cited from earlier work
[6] = test system: Streptozotocin (STZ) diabetic mice; assay: Prophylactic hypoglycemia prevention after insulin overdose in diabetic mice
Procedure: To assess the ability of this technology to act in a preventative role to limit the onset and severity of hypoglycemia, a mouse model was established. Male C57BL6/J mice, aged 8 weeks, were induced to be diabetic by the destruction of pancreatic β-cells using a single intraperitoneal (i.p.) injection of streptozotocin (STZ, Cayman Chemical) at a dose of 150 mg/kg, according to published dosing protocols. […] Insulin-deficient diabetes was verified at 9-13 days following STZ treatment using handheld blood glucose meters (CVS brand) to ensure unfasted blood glucose (BG) levels of 600+ mg/dL. These glucometers measure blood glucose values in the range of 20-600 mg/dL. For convention in presenting data, values of “high” are plotted as 600 mg/dL, while values of “low” are plotted as 20 mg/dL.
Mice were fasted overnight for a period of 9 h, after which time BG was again measured. Mice having a fasted BG<450 mg/dL were triaged and removed from further study. Remaining mice were dosed with basal insulin detemir (Levemir®, Novo Nordisk) via subcutaneous (s.c.) injection at a dose of 0.5 IU/kg in a total injection volume of 100 μL. […] This material formulation was verified to be stable following extrusion through a syringe into a pH 7 buffer containing 100 mg/dL glucose. Blood glucose was monitored serially following treatment, which for purposes of data visualization was set as t=0 min. At 2 h following administration of treatments, hypoglycemia was induced by i.p. injection of AOF recombinant human insulin (Gibco) at a dose of ˜2.5 IU/kg in 100 μL of saline. BG levels were monitored for an additional 3 h after insulin overdose to monitor the onset of, and recovery from, hypoglycemia. […] In total n=9 mice per group were assessed by these methods, performing all treatments in two separate experiments on different mouse cohorts at different times and combining the data for analysis here. Mice were fasted for the duration of the study but had continuous access to water. […] Statistical testing between treatment and control groups was performed using one-way ANOVA with Tukey multiple comparison post-hoc testing (GraphPad Prism v9.0).
STZ mice were fasted to increase sensitivity to both insulin and glucagon and limit confounding data arising from variable eating patterns. After a 9 h fast, basal insulin detemir (Novo Nordisk, Levemir®) was administered to correct blood glucose to within the normoglycemic range for a healthy mouse (˜180-200 mg/dL) to simulate insulin-dependent blood glucose control in diabetes.

[7] = in vivo; cited from earlier work

Compound: CCCCCCCCCC(=O)N[C@H](C(=O)N[C@H](C(=O)N[C@@H](C)C(=O)N[C@@H](C)C(=O)N[C@@H](CCC(=O)O)C(=O)N[C@@H](CCC(=O)O)C(N)=O)C(C)C)C(C)C [C10—V2A2E2] (Decanoyl-VVAAEE-NH2)
Δ Release % (pH 7-5 at 5 hr) [1]: 62.6%
critical strain ([2]; hydrogel in buffer at pH 5): ~55%
strain range of linear behavior with G′>G″ ([2]; hydrogel in buffer at pH 5): 0.1-5%
pKa ([2]; inferred from rheology, TEM, CD, FTIR, ThT, read-out: pKa of glutamic acid residues in the assembled structures): 5 to 6
storage modulus G′ ([2]; pH 4): 6.2 kPa
storage modulus G′ ([2]; pH 5): 5.1 kPa
storage modulus G′ ([2]; pH 6): 53.7 Pa
storage modulus G′ ([2]; pH 7): 4.3 Pa
storage modulus G′ ([2]; pH 8): 1.2 Pa
pH within hydrogel sample ([3]; 0 mg/dL glucose): 7.3
pH within hydrogel sample ([3]; 200 mg/dL glucose): 5.5
storage modulus G′ ([4]; 0 mg/dL glucose): 10.2 Pa
storage modulus G′ ([4]; 50 mg/dL glucose): 19.0 Pa
storage modulus G′ ([4]; 100 mg/dL glucose): 29.5 Pa
storage modulus G′ ([4]; 150 mg/dL glucose): 206.6 Pa
storage modulus G′ ([4]; 200 mg/dL glucose): 2.4 kPa

Compound: insulin detemir
duration of action [5]: 18 to 20 h

Compound: dasiglucagon
blood glucose relative to buffer control ([6]; 30 min after treatment, before insulin challenge): sharply increased
blood glucose at endpoint of study ([6]; 300 min, 3 h after insulin challenge, n=9): 65.6 ± 10.8 mg/dL
minimum (nadir) blood glucose ([6]; STZ mice, s.c. 0.01 mg dasiglucagon, insulin challenge at 2 h, n=9, SEM): 41.1 ± 5.0 mg/dL
observations of death ([6]; after insulin overdose): 1 of 9

Compound: glucagon
half-life in circulation [7]: approximately 5 min

Next, values leading:

Δ Release % (pH 7-5 at 5 hr) [1]: 53.8%
Compound: CCCCCCCCCCCCCCCC(=O)N[C@H](C(=O)N[C@@H](C)C(=O)N[C@@H](C)C(=O)N[C@@H](C)C(=O)N[C@@H](CCC(=O)O)C(=O)N[C@@H](CCC(=O)O)C(N)=O)C(C)C [C16—VA3E2] (Palmitoyl-VAAAEE-NH2)

Δ Release % (pH 7-5 at 5 hr) [1]: 43.6%
Compound: CCCCCCCCCCCCCCCC(=O)N[C@H](C(=O)N[C@H](C(=O)N[C@@H](C)C(=O)N[C@@H](C)C(=O)N[C@@H](CCC(=O)O)C(=O)N[C@@H](CCC(=O)O)C(N)=O)C(C)C)C(C)C [C16—V2A2E2] (Palmitoyl-VVAAEE-NH2)

Δ Release % (pH 7-5 at 5 hr) [1]: 39.1%
Compound: CCCCCCCCCC(=O)N[C@H](C(=O)N[C@@H](C)C(=O)N[C@@H](C)C(=O)N[C@@H](C)C(=O)N[C@@H](CCC(=O)O)C(=O)N[C@@H](CCC(=O)O)C(N)=O)C(C)C [C10—VA3E2] (Decanoyl-VAAAEE-NH2)

Δ Release % (pH 7-5 at 5 hr) [1]: 38.9%
Compound: CCCCCCCCCCCCCCCC(=O)N[C@@H](C)C(=O)N[C@@H](C)C(=O)N[C@H](C(=O)N[C@H](C(=O)N[C@@H](CCC(=O)O)C(=O)N[C@@H](CCC(=O)O)C(N)=O)C(C)C)C(C)C [C16—A2V2E2] (Palmitoyl-AAVVEE-NH2)

— patent US20230357349A1, “GLUCAGON DELIVERY VIA ENZYMATIC ACTUATION” (University of Notre Dame du Lac, priority 2022, published 2023)
